# Where two headings read alike, the source gives them in different places.
# How the values were obtained:
# CYP1A1 = assay: 7-ethoxyresorufin O-deethylase (EROD) assay, CYP1A1 induction in Hepa1c1c7 cells; assay type: cell-based, murine; details: 48 h
# Procedure: Hepa1c1c7 cells were plated at a density of 10000 cells per well in a 96-well plate and cultured for 24 h. A stock solution of test compound was prepared in DMSO and serially diluted with medium to give the desired concentration in the well. The final concentration of DMSO was 0.5% v/v. The cells were incubated with test compound for 48 h, after which the medium was removed, the well washed with 200 μl of 1×phosphate-buffered saline solution (PBS) and then incubated with 5 μM 7-ethoxyresorufin and 2 mM salicylamide in 200 μl of medium at 37° C., 40 min. Readings were taken at λexcitation of 530 nm and λemission of 590 nm on a fluorometer. Fluorescence (if any) of the test compound was determined at the same wavelengths to take into account its contribution to the observed readings. Readings of empty wells (no cells, “blank”) and wells with Hepa1c1c7 cells in medium containing 0.5% DMSO but without test compound (“control”) were also determined. TCDD, a strong inducer of CYP1A1 activity, as well as BNF and sulforaphane were used as controls.
# CYP1A1 induction activity was given by the expression:
# Degree of induction=FCells+test compound−FBlank/FControl−FBlank
# The EROD assay was used for this purpose (Burke, M. D.; Mayer, R. T., Drug Metab Dispos 1974, 2, 583). EROD activity describes the rate at which CYP1A1 caused the O-deethylation of 7-ethoxyresorufin to resorufm. […] This ratio was determined for compounds at concentrations that were approximately 4 times their CD values. A fixed concentration was not used here because it would be difficult to select this concentration in view of the large variation in NQO1 induction activities. The quotient of NQO1 and CYP1A1 induction ratios (ratio determined at the same concentration) was also obtained for each compound. Values >1 would imply greater induction of NQO1 relative to CYP1A1.
# Hs817T = assay: Cell Titer-Glo viability, Hs817T; assay type: cell-based, human; details: 5 μM
# Procedure: (§1) The efficacy of compound 47 against HCC proliferation was tested on a wider panel of HCC cell lines: Hep3B ([…]), Hs817T (▪), PLC/PRF/5 (▴) and SK-Hep 1 (▾), as determined by Cell Titer-Glo assay.
# (§2) Cells were plated at 5000-7000 cells/per well and incubated for 24 h before treatment. […] Cell Titer-Glo (Promega, Madison, Wis.) assay was performed according to manufacturer's instruction with luminescence detected on SpectraMax M5 (Molecular Devices, Sunnyvale, Calif.). Data was expressed as percentage of viability vs. vehicle-treated controls.
# (§3) Accordingly, Compound 47 was screened against a larger panel of 4 additional HCC cell lines.
# [1] = tested on: Hep3B, Hs817T, PLC/PRF/5 and SK-Hep 1; assay: Cell Titer-Glo viability, panel of 4 additional HCC cell lines; assay type: cell-based, human
# Procedure: as §1, §2, §3
# AFP = AFP transcription in HuH7 by quantitative real-time PCR; assay type: cell-based, human; details: HuH7, 10 μM, 24 h, normalized against 18S mRNA
# Insulin R = target: T1, Insulin R (Homo sapiens, UniProt P06213); assay: Human phospho-RTK array, HuH7: Insulin R; assay type: cell-based; details: 24 h, untreated 0.74
# T1 construct: endogenous in cells; host or cells: HuH7
# T1 sequence (P06213 28-1382): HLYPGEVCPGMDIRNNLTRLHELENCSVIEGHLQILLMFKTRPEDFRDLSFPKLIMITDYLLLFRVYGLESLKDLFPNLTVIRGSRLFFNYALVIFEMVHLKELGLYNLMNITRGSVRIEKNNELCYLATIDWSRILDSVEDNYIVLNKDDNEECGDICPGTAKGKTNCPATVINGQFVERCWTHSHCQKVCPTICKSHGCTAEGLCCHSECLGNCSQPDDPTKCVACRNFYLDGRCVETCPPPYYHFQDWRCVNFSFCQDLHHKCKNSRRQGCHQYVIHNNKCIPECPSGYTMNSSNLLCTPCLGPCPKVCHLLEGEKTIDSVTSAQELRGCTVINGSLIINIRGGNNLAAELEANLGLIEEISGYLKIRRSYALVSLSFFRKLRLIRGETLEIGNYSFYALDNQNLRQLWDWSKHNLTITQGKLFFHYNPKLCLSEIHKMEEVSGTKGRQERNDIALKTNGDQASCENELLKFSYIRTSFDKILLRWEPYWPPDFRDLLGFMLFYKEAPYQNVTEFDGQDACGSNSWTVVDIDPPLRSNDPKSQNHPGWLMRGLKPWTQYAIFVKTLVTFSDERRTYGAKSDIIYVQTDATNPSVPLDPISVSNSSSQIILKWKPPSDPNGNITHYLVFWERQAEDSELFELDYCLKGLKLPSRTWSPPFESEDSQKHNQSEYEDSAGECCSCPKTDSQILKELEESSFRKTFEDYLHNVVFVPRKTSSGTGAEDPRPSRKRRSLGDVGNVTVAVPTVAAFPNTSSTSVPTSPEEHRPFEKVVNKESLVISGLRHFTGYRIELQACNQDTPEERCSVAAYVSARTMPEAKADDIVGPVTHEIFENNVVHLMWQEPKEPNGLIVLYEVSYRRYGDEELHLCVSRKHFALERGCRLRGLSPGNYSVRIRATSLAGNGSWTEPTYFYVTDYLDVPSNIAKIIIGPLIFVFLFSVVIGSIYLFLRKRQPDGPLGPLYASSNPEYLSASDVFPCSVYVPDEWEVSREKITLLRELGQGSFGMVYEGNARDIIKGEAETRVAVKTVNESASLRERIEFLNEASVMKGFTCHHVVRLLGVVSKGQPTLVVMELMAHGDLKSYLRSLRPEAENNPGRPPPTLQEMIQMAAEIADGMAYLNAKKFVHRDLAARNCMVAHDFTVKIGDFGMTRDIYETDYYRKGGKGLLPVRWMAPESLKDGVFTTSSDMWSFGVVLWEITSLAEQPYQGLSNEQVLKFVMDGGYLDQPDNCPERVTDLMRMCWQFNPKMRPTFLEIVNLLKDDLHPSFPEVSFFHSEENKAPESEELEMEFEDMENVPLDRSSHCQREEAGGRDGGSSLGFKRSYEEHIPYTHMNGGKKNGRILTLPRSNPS
# Procedure: (§4) Kinase phosphorylation changes were determined with human phospho-RTK array.
# (§5) Cells harvesting, hybridization with RTK array and incubation with anti-phosphotyrosine were performed according to manufacturer's instruction. Imaging and quantification of the spots intensities was with Fujifilm LAS-3000 (Tokyo, Japan). Average signal of the duplicate spots for each RTK was determined.
# EGFR = target: T2, EGFR (Homo sapiens, UniProt P00533); assay type: cell-based; details: 24 h, untreated 0.15
# T2 construct: Cells treated similarly were immunoprecipitated with anti-EGFR, anti-EphA2 and anti-Tyro3; endogenous in cells; host or cells: HuH7
# T2 sequence (P00533 25-1210): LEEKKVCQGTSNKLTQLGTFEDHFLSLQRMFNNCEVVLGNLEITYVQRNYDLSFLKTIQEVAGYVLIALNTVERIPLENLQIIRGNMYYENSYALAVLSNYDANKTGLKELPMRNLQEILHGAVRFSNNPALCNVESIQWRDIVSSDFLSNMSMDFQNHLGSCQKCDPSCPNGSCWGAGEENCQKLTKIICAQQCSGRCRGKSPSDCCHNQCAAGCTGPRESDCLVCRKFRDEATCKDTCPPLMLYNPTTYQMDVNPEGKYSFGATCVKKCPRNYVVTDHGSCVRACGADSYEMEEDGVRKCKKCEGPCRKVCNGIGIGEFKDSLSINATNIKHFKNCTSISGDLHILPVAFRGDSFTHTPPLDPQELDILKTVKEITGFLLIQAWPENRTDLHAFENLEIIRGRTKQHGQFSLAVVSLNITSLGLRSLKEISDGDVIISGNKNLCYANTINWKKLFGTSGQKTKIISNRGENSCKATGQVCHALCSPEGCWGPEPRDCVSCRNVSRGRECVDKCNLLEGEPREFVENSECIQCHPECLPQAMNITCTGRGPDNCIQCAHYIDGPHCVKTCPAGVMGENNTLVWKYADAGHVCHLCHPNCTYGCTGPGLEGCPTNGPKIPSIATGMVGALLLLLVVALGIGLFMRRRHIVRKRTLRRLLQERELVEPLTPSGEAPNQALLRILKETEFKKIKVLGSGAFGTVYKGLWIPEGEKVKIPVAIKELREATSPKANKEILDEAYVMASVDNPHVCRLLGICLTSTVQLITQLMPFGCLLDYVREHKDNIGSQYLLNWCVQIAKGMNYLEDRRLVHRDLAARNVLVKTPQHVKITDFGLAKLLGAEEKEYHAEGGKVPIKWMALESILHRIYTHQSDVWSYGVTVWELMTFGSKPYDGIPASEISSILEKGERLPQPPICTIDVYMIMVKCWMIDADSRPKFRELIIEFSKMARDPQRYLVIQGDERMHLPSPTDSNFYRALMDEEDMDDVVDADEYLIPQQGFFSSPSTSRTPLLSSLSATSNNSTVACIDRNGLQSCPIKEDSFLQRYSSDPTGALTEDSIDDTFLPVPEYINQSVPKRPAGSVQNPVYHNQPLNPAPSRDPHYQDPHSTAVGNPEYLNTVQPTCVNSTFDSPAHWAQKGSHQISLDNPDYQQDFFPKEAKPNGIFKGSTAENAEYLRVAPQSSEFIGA
# Procedure: as §4, §5
# Tyro3 [2] = target: T3, Tyro3 (Homo sapiens, UniProt Q06418); assay: Human phospho-RTK array, HuH7: Tyro-3; assay type: cell-based; details: 24 h, untreated 0.15
# T3 construct: we examined the constitutively phosphorylated IGF-1R, EphA2 and Tyro3; endogenous in cells; host or cells: HuH7
# T3 sequence (Q06418 41-890): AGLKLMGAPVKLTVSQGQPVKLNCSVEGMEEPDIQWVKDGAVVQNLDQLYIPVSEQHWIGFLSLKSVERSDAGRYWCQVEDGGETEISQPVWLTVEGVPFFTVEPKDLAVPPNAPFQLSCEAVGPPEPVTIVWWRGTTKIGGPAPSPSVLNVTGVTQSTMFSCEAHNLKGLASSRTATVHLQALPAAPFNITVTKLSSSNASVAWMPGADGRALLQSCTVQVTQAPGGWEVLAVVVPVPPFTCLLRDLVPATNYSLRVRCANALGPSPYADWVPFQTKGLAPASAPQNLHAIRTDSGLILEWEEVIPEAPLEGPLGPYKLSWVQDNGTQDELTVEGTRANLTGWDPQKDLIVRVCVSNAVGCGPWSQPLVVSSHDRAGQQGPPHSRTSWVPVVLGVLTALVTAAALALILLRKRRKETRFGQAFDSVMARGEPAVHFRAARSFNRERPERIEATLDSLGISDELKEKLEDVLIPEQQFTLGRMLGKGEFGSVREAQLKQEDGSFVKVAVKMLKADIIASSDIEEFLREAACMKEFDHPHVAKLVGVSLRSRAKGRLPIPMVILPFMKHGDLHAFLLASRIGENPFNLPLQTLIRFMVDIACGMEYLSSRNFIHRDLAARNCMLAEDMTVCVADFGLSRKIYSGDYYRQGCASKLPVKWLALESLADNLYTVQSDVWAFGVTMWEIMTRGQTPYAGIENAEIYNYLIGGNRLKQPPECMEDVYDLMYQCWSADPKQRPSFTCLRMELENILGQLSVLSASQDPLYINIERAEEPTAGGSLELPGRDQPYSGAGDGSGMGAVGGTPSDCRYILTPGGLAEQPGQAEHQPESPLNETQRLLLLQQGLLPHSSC
# Procedure: as §4, §5
# Her3 = target: T4, Her3 (Homo sapiens, UniProt P21860); assay: Human phospho-RTK array, HuH7: Her3; assay type: cell-based; details: 24 h, untreated 0.05
# T4 construct: endogenous in cells; host or cells: HuH7
# T4 sequence (P21860 20-1342): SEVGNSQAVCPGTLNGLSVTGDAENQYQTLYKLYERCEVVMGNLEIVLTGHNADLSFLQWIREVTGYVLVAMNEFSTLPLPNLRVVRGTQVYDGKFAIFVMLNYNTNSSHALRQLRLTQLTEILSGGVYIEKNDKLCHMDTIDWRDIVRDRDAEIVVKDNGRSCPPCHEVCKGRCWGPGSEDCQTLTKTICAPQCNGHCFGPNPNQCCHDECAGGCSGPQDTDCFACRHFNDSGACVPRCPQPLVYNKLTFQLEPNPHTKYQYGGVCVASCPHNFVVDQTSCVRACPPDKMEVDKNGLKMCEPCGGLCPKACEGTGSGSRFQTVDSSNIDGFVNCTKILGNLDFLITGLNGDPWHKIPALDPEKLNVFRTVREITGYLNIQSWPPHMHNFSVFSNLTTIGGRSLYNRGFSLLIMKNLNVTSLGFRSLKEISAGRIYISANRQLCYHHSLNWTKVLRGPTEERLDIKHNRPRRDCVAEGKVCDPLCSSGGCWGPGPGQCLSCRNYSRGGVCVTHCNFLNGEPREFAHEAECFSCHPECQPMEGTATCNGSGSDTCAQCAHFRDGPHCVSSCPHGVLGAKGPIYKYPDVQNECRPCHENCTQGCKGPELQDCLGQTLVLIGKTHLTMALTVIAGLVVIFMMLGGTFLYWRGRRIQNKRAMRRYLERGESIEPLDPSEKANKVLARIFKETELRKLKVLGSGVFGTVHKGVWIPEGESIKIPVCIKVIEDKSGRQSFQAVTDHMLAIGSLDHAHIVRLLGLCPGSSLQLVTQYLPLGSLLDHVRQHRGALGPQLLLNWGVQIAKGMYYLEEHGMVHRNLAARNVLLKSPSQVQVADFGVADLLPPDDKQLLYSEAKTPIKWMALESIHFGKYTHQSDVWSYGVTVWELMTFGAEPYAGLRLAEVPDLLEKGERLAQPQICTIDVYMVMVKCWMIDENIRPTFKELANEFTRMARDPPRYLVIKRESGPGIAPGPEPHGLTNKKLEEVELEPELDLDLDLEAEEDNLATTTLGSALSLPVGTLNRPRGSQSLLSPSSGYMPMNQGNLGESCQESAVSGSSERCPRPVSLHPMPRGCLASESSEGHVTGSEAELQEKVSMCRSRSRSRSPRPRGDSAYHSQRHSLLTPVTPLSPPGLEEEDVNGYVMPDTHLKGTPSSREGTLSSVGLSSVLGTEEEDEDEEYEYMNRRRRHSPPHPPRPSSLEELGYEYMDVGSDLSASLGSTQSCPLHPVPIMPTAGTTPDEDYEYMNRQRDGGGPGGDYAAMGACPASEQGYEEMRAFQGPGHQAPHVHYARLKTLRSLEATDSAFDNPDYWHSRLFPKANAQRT
# Procedure: as §4, §5
# IGF-1R = target: T5, IGF-1R (Homo sapiens, UniProt P08069); assay: Immunoblot of phospho-IGF-1R in HuH7; assay type: cell-based; details: HuH7, 24 h; Compound 47 1, 5 or 10 μM, sunitinib 10 μM
# T5 construct: we examined the constitutively phosphorylated IGF-1R, EphA2 and Tyro3; endogenous in cells; host or cells: HuH7
# Tyro3 [3] = target: T3, Tyro3; assay: Immunoprecipitation / anti-phosphotyrosine blot of Tyro3 in HuH7; assay type: cell-based; details: HuH7, 24 h; Compound 47 1, 5 or 10 μM, sunitinib 10 μM
smiles,measurement,setting,value
"COc1ccc2c(c1)NC(=O)/C2=C/c1cccc(C(F)(F)F)c1 [Compound 48, (E)-6-Methoxy-3-(3-(trifluoromethyl)benzylidene)indolin-2-one]",CYP1A1 induction ratio,CYP1A1; 0.5 μM,1.36 ± 0.07
"O=C1Nc2cc(F)ccc2/C1=C\c1cccc(C(F)(F)F)c1 [Compound 46, (E)-6-Fluoro-3-(3-(trifluoromethyl)benzylidene)indolin-2-one]",CYP1A1 induction ratio,CYP1A1; 0.05 μM,1.23 ± 0.08
"O=C1Nc2cc(Cl)ccc2/C1=C\c1cccc(C(F)(F)F)c1 [Compound 47, (E)-6-Chloro-3-(3-(trifluoromethyl)benzylidene)indolin-2-one]",viability Hs817T,Hs817T,undetectable viability
same,IC50 in 3 of the 4 additional HCC cell lines tested,[1],low micromolar or submicromolar
same,AFP transcript vs untreated controls,AFP,significantly repressed to one-third
same,Insulin R Phosphorylation,"Insulin R; serum starved HuH7, 1 μM",0.75 Arbitrary units
same,Insulin R Phosphorylation,"Insulin R; serum starved HuH7, 5 μM",0.4 Arbitrary units
same,Insulin R Phosphorylation,"Insulin R; serum starved HuH7, 10 μM",0.38 Arbitrary units
same,EGFR Phosphorylation,"EGFR; serum starved HuH7, 1 μM",0.19 Arbitrary units
same,EGFR Phosphorylation,"EGFR; serum starved HuH7, 5 μM",0.44 Arbitrary units
same,EGFR Phosphorylation,"EGFR; serum starved HuH7, 10 μM",0.53 Arbitrary units
same,Tyro-3 Phosphorylation,"Tyro3 [2]; serum starved HuH7, 1 μM",0.10 Arbitrary units
same,Tyro-3 Phosphorylation,"Tyro3 [2]; serum starved HuH7, 5 μM",0.11 Arbitrary units
same,Tyro-3 Phosphorylation,"Tyro3 [2]; serum starved HuH7, 10 μM",0.07 Arbitrary units
same,Her3 Phosphorylation,"Her3; serum starved HuH7, 1 μM",0.07 Arbitrary units
same,Her3 Phosphorylation,"Her3; serum starved HuH7, 5 μM",0.04 Arbitrary units
same,Her3 Phosphorylation,"Her3; serum starved HuH7, 10 μM",0.03 Arbitrary units
same,IGF-1R phosphorylation (Y980 and Y1135/1136) by immunoblot,IGF-1R,proportional reduction
same,Tyro3 phosphorylation by immunoblot,Tyro3 [3],inhibited even at the lowest concentration used (1 μM)
"COc1ccc2c(c1)NC(=O)/C2=C/c1ccc(OC)c(O)c1 [Compound 45, (E)-3-(3-Hydroxy-4-methoxybenzylidene)-6-methoxyindolin-2-one]",CYP1A1 induction ratio,CYP1A1; 1 μM,1.05 ± 0.01
"COc1cccc(/C=C2/C(=O)Nc3cc(OC)ccc32)c1 [Compound 42, (E)-6-Methoxy-3-(3-methoxybenzylidene)indolin-2-one]",CYP1A1 induction ratio,CYP1A1; 0.5 μM,1.13 ± 0.01

# Source: US20110269812A1, “NOVEL BENZYLIDENE-INDOLINONE AND THEIR MEDICAL AND DIAGNOSTIC USES” (Agency for Science, Technology and Research, priority 2008, published 2011)
